The values below come from patent US9382254B2, “Compounds and pharmaceutical compositions thereof for the treatment of cystic fibrosis” (Galapagos NV, priority 2013, dated 2016).

pEC50: −log10 of the molar value.

Holding throughout (assay type): cell-based
Assay [1] addresses T1, CFTR ΔF508 mutant (Homo sapiens, UniProt P13569, DEL508-508).
T1 construct: expressed in transfected cells; host or cells: CFBE41o- (adenoviral transduction)
Put plainly: YFP-halide influx assay for the CFTR-ΔF508 mutation, PBS buffer (96 well). As to conditions: CFBE41o- cells, forskolin 10.67 μM. The text has this: The YFP halide influx assay measures the functionality of the cystic fibrosis Transmembrane Conductance regulator (CFTR) channels in the cystic fibrosis bronchial epithelium cell line CFBE41o-. The assay is used to evaluate the capacity of compounds to increase the open probability of existing CFTR channels in the membrane. It makes use of the observation that the yellow fluorescent protein (YFP) variant YFP H148Q, I152L has its fluorescence substantially quenched by halide ions like Cl^− and I^−. (Galietta, Haggie, & Verkman, 2001) (Nagai, et al., 2002)
For this purpose, CFBE41o-cells are seeded in 96 well plates (6000 CFBE cells/well). One day after seeding, the CFBE cells are transduced with adenoviral vectors that direct the expression of the CFTR ΔF508 mutant and of the YFP reporter. Cells are incubated at 27° C., 5% CO2 for 24 hours so as to allow for the proper folding and migration to the membrane of the CFTR channel or treated with a CFTR modulator during 24 hours at 37° C.
The I^− induced quenching of fluorescence is recorded immediately after injection of I^− for 7 seconds. The capacity of a compound to increase the channel opening is directly correlated with the decrease in fluorescence, and is expressed as (1-(fluorescence after 7 seconds (F)/fluorescence before injection (F0))) and an EC50 can be derived from a (1-F/F0) vs compound concentration plot.

A further assay concerns the target T2, CFTR G551D mutant (Homo sapiens, UniProt P13569, G551D).
T2 construct: expressed in transfected cells; host or cells: HEK293 (reverse transfection with plasmid)
Put plainly: YFP-halide influx assay for the CFTR-G551D mutation. To be noted: HEK293 cells, forskolin 10.67 μM. The gist of the method:
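HEK293 cells reverse-transfected with CFTR G551D and YFP H148Q/I152L/F47L halide sensor, expressed 24 h at 37 °C. Iodide-induced fluorescence quench recorded 7 s after I− injection; response = 1−F/F0, with EC50 from plot against compound concentration.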

In assay [2] the target is T1, CFTR ΔF508 mutant. Description: YFP-halide influx assay for the CFTR-ΔF508 mutation (384 well, FDSS/μCell). To be noted: CFBE41o- cells, CFTR-ΔF508, 1×D-PBS, fluorescence after 36 seconds. An outline of the steps: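 Potentiator read-out as 1−F/F0, F taken 36 s after iodide addition, EC50 fitted against compound concentration. Cells: CFBE41o- expressing ΔF508 CFTR plus halide-sensitive YFP via adenovirus, rescued by 27 °C for 24 h or 24 h modulator at 37 °C.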

T2 sequence (P13569 whole entry G551D): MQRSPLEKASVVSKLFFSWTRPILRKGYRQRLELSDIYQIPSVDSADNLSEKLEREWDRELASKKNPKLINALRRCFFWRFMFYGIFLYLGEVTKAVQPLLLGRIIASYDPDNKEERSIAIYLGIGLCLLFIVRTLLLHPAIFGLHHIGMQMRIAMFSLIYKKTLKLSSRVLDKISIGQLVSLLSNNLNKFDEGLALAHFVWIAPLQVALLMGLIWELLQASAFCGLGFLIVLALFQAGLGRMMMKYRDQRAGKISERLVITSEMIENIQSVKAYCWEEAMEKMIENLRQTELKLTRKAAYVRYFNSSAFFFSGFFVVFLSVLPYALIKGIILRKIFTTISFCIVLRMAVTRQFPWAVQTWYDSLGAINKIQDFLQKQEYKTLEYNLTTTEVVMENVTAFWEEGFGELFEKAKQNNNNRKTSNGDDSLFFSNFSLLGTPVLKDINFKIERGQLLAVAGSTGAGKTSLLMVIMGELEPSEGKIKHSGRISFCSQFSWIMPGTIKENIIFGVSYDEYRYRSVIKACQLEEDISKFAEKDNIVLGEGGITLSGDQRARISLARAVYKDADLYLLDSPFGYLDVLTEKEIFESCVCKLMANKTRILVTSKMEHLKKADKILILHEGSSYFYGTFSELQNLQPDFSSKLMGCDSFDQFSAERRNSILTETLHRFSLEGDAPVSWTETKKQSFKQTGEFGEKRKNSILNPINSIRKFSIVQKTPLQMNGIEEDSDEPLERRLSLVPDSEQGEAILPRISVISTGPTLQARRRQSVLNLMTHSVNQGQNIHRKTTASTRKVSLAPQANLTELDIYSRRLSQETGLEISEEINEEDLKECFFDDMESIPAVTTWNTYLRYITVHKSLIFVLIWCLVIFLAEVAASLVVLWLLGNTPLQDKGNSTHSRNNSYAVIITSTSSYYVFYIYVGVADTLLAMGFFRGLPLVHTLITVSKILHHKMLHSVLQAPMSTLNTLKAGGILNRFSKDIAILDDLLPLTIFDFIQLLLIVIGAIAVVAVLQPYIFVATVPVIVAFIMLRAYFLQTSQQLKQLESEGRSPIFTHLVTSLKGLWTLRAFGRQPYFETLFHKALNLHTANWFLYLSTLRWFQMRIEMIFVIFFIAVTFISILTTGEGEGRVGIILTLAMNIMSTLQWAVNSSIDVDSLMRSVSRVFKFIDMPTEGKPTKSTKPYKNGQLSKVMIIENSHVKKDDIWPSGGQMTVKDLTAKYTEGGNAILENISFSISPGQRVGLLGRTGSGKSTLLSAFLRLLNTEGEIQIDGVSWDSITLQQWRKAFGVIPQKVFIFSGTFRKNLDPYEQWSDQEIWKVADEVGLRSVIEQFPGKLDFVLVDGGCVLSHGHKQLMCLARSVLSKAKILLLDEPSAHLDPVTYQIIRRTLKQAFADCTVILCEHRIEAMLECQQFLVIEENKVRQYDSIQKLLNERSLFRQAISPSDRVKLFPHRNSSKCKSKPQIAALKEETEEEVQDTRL
T1 sequence (P13569 with tags, fused parts or gaps DEL508-508): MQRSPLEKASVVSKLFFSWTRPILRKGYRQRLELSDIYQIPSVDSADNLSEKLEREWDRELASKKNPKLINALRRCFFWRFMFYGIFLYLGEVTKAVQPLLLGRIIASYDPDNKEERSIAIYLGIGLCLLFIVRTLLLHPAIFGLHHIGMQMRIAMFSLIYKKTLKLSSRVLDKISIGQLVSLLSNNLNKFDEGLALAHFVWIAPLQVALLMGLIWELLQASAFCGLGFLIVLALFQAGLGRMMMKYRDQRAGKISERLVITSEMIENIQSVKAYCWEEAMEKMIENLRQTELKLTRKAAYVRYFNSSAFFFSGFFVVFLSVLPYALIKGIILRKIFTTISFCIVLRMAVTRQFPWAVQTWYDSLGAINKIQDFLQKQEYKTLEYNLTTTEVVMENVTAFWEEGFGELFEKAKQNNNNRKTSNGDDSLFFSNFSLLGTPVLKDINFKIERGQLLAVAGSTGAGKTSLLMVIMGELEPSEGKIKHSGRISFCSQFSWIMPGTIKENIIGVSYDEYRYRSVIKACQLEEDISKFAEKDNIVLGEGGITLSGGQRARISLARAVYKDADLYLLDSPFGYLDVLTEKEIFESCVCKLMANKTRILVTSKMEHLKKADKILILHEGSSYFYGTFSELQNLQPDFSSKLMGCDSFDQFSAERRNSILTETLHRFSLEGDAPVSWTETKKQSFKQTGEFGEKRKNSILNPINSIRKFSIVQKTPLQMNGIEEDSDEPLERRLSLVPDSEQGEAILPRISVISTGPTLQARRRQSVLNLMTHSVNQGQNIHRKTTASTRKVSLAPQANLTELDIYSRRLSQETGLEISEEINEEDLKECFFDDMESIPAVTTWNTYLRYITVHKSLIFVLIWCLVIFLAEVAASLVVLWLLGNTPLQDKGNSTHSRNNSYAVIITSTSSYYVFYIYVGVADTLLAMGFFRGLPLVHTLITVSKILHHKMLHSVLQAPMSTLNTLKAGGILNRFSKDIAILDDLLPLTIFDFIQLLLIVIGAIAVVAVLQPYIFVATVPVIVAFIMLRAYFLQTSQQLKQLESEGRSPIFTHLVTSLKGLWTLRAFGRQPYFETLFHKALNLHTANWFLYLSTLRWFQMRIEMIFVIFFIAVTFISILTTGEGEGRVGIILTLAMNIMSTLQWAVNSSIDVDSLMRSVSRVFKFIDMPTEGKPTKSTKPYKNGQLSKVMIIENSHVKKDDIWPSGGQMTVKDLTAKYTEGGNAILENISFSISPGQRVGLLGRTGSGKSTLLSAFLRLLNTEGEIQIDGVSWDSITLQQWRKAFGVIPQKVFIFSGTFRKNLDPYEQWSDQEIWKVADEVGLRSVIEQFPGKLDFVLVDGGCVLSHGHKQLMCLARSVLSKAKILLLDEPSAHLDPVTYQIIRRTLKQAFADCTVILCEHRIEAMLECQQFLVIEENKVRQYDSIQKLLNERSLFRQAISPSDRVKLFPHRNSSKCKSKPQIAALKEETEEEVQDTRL

In general, pEC50 refers to the negative decadic logarithm of the EC50, by convention in mol/L. The low end stands for a large EC50, the high end for a small EC50. `CN(C1CC1)S(=O)(=O)c1cc(C(N)=O)c(NC(=O)C2(O)CC2)s1` [Compound 232, 5-(N-cyclopropyl-N-methylsulfamoyl)-2-(1-hydroxycyclopropanecarboxamido) thiophene-3-carboxamide]: the pEC50 is 6.89 on CFTR ΔF508 mutant [1] and 5.98 on CFTR G551D mutant.
As to `CC(C)N(C(C)C)S(=O)(=O)c1cc(C(N)=O)c(NC(=O)C2(O)CC2)s1` [Compound 233, 5-(N,N-diisopropylsulfamoyl)-2-(1-hydroxycyclopropanecarboxamido) thiophene-3-carboxamide], the values for the pEC50 at CFTR ΔF508 mutant [1] and at CFTR G551D mutant (class symbol) were 6.89 and below 6.00, respectively.
On to `COc1ccc(CN(C)S(=O)(=O)c2cc(C(N)=O)c(NC(=O)C3(O)CC3)s2)cc1` [Compound 235, 2-(1-hydroxycyclopropanecarboxamido)-5-(N-(4-methoxybenzyl)-N-methylsulfamoyl) thiophene-3-carboxamide], for which the results for the pEC50 on CFTR ΔF508 mutant [1] and at CFTR ΔF508 mutant [2] were 7.33 and 7.12, respectively.
With `CC(C)N(c1ccc(F)cc1)S(=O)(=O)c1cc(C(N)=O)c(NC(=O)C2(O)CC2)s1` [Compound 237, 5-(N-(4-fluorophenyl)-N-isopropylsulfamoyl)-2-(1-hydroxycyclopropanecarboxamido) thiophene-3-carboxamide], the pEC50 on CFTR ΔF508 mutant [1] is 7.18; at CFTR ΔF508 mutant [2], 6.97.
On CFTR ΔF508 mutant [1], `CC1(C)COCCN1S(=O)(=O)c1cc(C(N)=O)c(NC(=O)C2(O)CC2)s1` [Compound 241, 5-(3,3-dimethylmorpholinosulfonyl)-2-(1-hydroxycyclopropanecarboxamido) thiophene-3-carboxamide] gave a pEC50 of 6.61.
In the case of `COC1CN(S(=O)(=O)c2cc(C(N)=O)c(NC(=O)C3(O)CC3)s2)C1` [Compound 243, 2-(1-hydroxycyclopropanecarboxamido)-5-(3-methoxyazetidin-1-ylsulfonyl)thiophene-3-carboxamide], on CFTR ΔF508 mutant [1], the pEC50 was 5.79.
On the same count and under the same terms, the same measure for `COCCN(C1CC1)S(=O)(=O)c1cc(C(N)=O)c(NC(=O)C2(O)CC2)s1` [Compound 244, 5-(N-cyclopropyl-N-(2-methoxyethyl)sulfamoyl)-2-(1-hydroxycyclopropanecarboxamido) thiophene-3-carboxamide]: 6.82.
Turning to `NC(=O)c1cc(S(=O)(=O)c2ccc(F)cc2)sc1NC(=O)c1cccnn1` [Compound 249, N-(3-carbamoyl-5-(4-fluorophenylsulfonyl)thiophen-2-yl)pyridazine-3-carboxamide], the pEC50 on CFTR ΔF508 mutant [1] was 5.54.
As to `NC(=O)c1cc(S(=O)(=O)c2ccc(F)cc2)sc1NC(=O)c1ccnnc1` [Compound 250, N-(3-carbamoyl-5-(4-fluorophenylsulfonyl)thiophen-2-yl) pyridazine-4-carboxamide], the pEC50 on CFTR ΔF508 mutant [1] is below 6.00.
As for `NC(=O)c1cc(S(=O)(=O)c2ccc(F)cc2)sc1NC(=O)C(O)C(F)(F)F` (centres unmarked) [Compound 252, 5-(4-fluorophenylsulfonyl)-2-(3,3,3-trifluoro-2-hydroxypropanamido) thiophene-3-carboxamide], the values for the pEC50 at CFTR ΔF508 mutant [1] and on CFTR G551D mutant were 7.31 and 6.67, respectively.
In the case of `CC1CN(S(=O)(=O)c2cc(C(N)=O)c(NC(=O)c3ccccc3C(F)(F)F)s2)CC(C)O1` (centres unmarked) [Compound 258, 5-(2,6-dimethylmorpholinosulfonyl)-2-(2-(trifluoromethyl)benzamido) thiophene-3-carboxamide], the results for the pEC50 on CFTR ΔF508 mutant [1] and on CFTR ΔF508 mutant [2] were 6.99 and 6.80, respectively.
As to `CC1COCC(C)N1S(=O)(=O)c1cc(C(N)=O)c(NC(=O)c2ccccc2C(F)(F)F)s1` (centres unmarked) [Compound 259, 5-(3,5-dimethylmorpholinosulfonyl)-2-(2-(trifluoromethyl)benzamido) thiophene-3-carboxamide], the negative logarithm of the EC50 (pEC50) on CFTR ΔF508 mutant [1] is 6.84.
On to `CC1(C)COCCN1S(=O)(=O)c1cc(C(N)=O)c(NC(=O)c2ccccc2C(F)(F)F)s1` [Compound 260, 5-(3,3-dimethylmorpholinosulfonyl)-2-(2-(trifluoromethyl)benzamido) thiophene-3-carboxamide], for which the pEC50 on CFTR ΔF508 mutant [1] was 7.03; on CFTR ΔF508 mutant [2] it was 7.06.
Take `COCCN(C1CC1)S(=O)(=O)c1cc(C(N)=O)c(NC(=O)c2ccccc2C(F)(F)F)s1` [Compound 261, 5-(N-cyclopropyl-N-(2-methoxyethyl)sulfamoyl)-2-(2-(trifluoromethyl)benzamido) thiophene-3-carboxamide]: the negative logarithm of the EC50 (pEC50) was 7.50 on CFTR ΔF508 mutant [1] and 7.03 at CFTR ΔF508 mutant [2].
For `CN(C1CC1)S(=O)(=O)c1cc(C(N)=O)c(NC(=O)c2ccccc2C(F)(F)F)s1` [Compound 262, 5-(N-cyclopropyl-N-methylsulfamoyl)-2-(2-(trifluoromethyl)benzamido) thiophene-3-carboxamide], the pEC50 was 7.16 at CFTR ΔF508 mutant [1] and 6.94 on CFTR ΔF508 mutant [2].
Turning to `NC(=O)c1cc(S(=O)(=O)c2ccc(F)cc2)sc1NC(=O)c1ccc(F)cn1` [Compound 266, N-(3-carbamoyl-5-(4-fluorophenylsulfonyl)thiophen-2-yl)-5-fluoropicolinamide], on CFTR ΔF508 mutant [1], the negative-log EC50 (pEC50) was 6.71.
Same read-out and setting: the same measure for `NC(=O)c1cc(S(=O)(=O)c2ccc(F)cc2)sc1Nc1ccccn1` [Compound 267, 5-(4-fluorophenylsulfonyl)-2-(pyridin-2-ylamino) thiophene-3-carboxamide]: 6.19; for `COC(C)(C)C(=O)Nc1sc(S(=O)(=O)c2ccc(F)cc2)cc1C(N)=O` [Compound 268, 5-(4-fluorophenylsulfonyl)-2-(2-methoxy-2-methylpropanamido) thiophene-3-carboxamide]: 6.71.
Same read-out and setting: the result for `CC(C)=CC(=O)Nc1sc(S(=O)(=O)c2ccc(F)cc2)cc1C(N)=O` [Compound 274, 5-(4-fluorophenylsulfonyl)-2-(3-methylbut-2-enamido) thiophene-3-carboxamide] reads 6.64.
On to `NC(=O)c1cc(S(=O)(=O)c2ccc(F)cc2)sc1NC(=O)C(O)(C(F)(F)F)C(F)(F)F` [Compound 275, 5-(4-fluorophenylsulfonyl)-2-(3,3,3-trifluoro-2-hydroxy-2-(trifluoromethyl)propanamido) thiophene-3-carboxamide], for which the pEC50 is 6.66 at CFTR ΔF508 mutant [1] and 5.77 at CFTR G551D mutant.
For `COCCOC(C)C(=O)Nc1sc(S(=O)(=O)c2ccc(F)cc2)cc1C(N)=O` (centres unmarked) [Compound 276, 5-(4-fluorophenylsulfonyl)-2-(2-(2-methoxyethoxy)propanamido) thiophene-3-carboxamide], in that order: 6.11 and 5.48.
For `NC(=O)c1cc(S(=O)(=O)c2ccc(F)cc2)sc1NC(=O)C1COCCO1` (centres unmarked) [Compound 277, N-(3-carbamoyl-5-(4-fluorophenylsulfonyl)thiophen-2-yl)-1,4-dioxane-2-carboxamide], in that order: 6.41 and 5.48.
Turning to `Cc1cccnc1S(=O)(=O)c1cc(C(N)=O)c(NC(=O)C(C)(C)O)s1` [Compound 278, 2-(2-hydroxy-2-methylpropanamido)-5-(3-methylpyridin-2-ylsulfonyl) thiophene-3-carboxamide], the figures for the pEC50 at CFTR ΔF508 mutant [1] and at CFTR G551D mutant (class symbol) were 5.86 and below 6.00, respectively.
`COCCOc1cc(F)ccc1S(=O)(=O)c1cc(C(N)=O)c(NC(=O)C(C)(C)O)s1` [Compound 282, 5-(4-fluoro-2-(2-methoxyethoxy)phenylsulfonyl)-2-(2-hydroxy-2-methylpropanamido) thiophene-3-carboxamide]: the pEC50 is 6.80 on CFTR ΔF508 mutant [1] and 5.48 at CFTR G551D mutant.
For `Cn1ccnc1S(=O)(=O)c1cc(C(N)=O)c(NC(=O)C(C)(C)O)s1` [Compound 285, 2-(2-hydroxy-2-methylpropanamido)-5-(1-methyl-1H-imidazol-2-ylsulfonyl) thiophene-3-carboxamide], the pEC50 on CFTR ΔF508 mutant [1] and at CFTR G551D mutant (class symbol) was below 6.00 throughout.
For `NC(=O)c1cc(S(=O)(=O)c2ccc(F)cc2)sc1NC(=O)C(O)CO` (centres unmarked) [Compound 288, 2-(2,3-dihydroxypropanamido)-5-(4-fluorophenylsulfonyl) thiophene-3-carboxamide], the results for the pEC50 at CFTR ΔF508 mutant [1] and at CFTR G551D mutant (class symbol) were 5.63 and below 6.00, respectively.
Regarding `CC(=O)OC(C)(C)C(=O)Nc1sc(S(=O)(=O)c2ccccc2C(C)C)cc1C(N)=O` [Compound 294, 1-(3-carbamoyl-5-(2-isopropylphenylsulfonyl)thiophen-2-ylamino)-2-methyl-1-oxopropan-2-yl acetate], the pEC50 at CFTR ΔF508 mutant [1] was 6.64; on CFTR G551D mutant it was 5.88.
